# BindingDB's records for doi:10.1021/jm00035a014 (University of Paris, 1994)
# Columns and labels:
# [1] = target: Glutamyl aminopeptidase (Oryctolagus cuniculus); assay: Inhibition of aminopeptidase A (APA)
# [2] = target: Aminopeptidase N (Sus scrofa) (UniProt P15145); assay: Inhibitory potency against aminopeptidase N (APN)
# Chain of Aminopeptidase N (Sus scrofa) (P15145 whole entry, looked up): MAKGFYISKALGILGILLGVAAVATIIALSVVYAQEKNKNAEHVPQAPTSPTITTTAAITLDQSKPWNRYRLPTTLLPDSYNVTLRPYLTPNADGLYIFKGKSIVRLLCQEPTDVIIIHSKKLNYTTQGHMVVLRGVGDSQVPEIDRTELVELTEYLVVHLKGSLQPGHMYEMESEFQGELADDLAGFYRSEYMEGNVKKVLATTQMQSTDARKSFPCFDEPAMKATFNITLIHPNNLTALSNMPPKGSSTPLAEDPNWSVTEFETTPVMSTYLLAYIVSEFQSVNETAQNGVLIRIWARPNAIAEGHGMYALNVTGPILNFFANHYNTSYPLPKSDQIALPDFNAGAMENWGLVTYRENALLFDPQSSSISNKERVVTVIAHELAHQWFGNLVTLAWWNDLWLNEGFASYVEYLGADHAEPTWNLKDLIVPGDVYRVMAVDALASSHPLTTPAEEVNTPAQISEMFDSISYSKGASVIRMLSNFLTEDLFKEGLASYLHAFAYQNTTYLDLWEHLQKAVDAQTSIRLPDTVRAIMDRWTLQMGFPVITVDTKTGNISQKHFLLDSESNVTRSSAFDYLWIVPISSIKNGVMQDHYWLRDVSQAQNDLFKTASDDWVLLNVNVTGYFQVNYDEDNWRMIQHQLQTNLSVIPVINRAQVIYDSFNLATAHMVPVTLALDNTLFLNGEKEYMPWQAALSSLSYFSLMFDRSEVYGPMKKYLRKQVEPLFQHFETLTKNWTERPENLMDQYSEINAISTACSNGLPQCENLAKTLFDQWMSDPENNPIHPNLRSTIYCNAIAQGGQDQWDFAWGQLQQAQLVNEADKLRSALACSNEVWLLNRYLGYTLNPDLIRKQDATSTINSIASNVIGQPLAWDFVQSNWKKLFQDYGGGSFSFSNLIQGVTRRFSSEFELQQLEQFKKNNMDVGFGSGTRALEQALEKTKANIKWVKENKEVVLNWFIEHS
SMILES,Ki [1],IC50 [2]
NC(CS)Cc1ccc(CC(=O)O)cc1 (configuration not stated) [[4-(2-Amino-3-mercapto-propyl)-phenyl]-acetic acid],2.2 µM,
NC(CS)Cc1cccc(C(=O)O)c1 (configuration not stated) [3-(2-Amino-3-mercapto-propyl)-benzoic acid],0.84 µM,
NC(CS)CC1CCCC(C(=O)O)C1 (configuration not stated) [2-(3-Carboxy-cyclohexyl)-1-mercaptomethyl-ethyl-ammonium],> 3 µM,
NC(CS)c1ccc(C(=O)O)cc1 (configuration not stated) [4-(1-Amino-2-mercapto-ethyl)-benzoic acid],> 3 µM,
NC(CS)c1cccc(C(=O)O)c1 (configuration not stated) [1-(3-Carboxy-phenyl)-2-mercapto-ethyl-ammonium],2.4 µM,
N[C@@H](CS)CCC(=O)O [(R)-4-Amino-5-mercapto-pentanoic acid],2.3 µM,
NC(CS)Cc1ccc(C(=O)O)cc1 (configuration not stated) [2-(4-Carboxy-phenyl)-1-mercaptomethyl-ethyl-ammonium],2.7 µM,
NC(CC(=O)O)Cc1ccccc1 (configuration not stated) [3-Amino-4-phenyl-butyric acid],,800 µM
NC(Cc1ccccc1)CP(=O)(O)O (configuration not stated) [1-Benzyl-2-phosphono-ethyl-ammonium],,500 µM
N[C@H](CCS)CCC(=O)O [(S)-4-Amino-6-mercapto-hexanoic acid],2 µM,
NC(CS)CC1CCC(CC(=O)O)CC1 (configuration not stated) [[4-(2-Amino-3-mercapto-propyl)-cyclohexyl]-acetic acid],2.8 µM,
NC(CS)CC1CCC(C(=O)O)CC1 (configuration not stated) [4-(2-Amino-3-mercapto-propyl)-cyclohexanecarboxylic acid],1.9 µM,
